Measured values as given in US20250144067A1, “PERSONALIZED STARVATION THERAPY FOR CANCER” (Faeth Therapeutics, Inc., priority 2021, published 2025).
Read-outs that look alike come from different tables or passages of the source.

Experiments:
[1] = test system: NCI-H292 lung cancer cells; assay: FDA drug screening, complete media vs cholesterol-free media with simvastatin (TABLE 2); format: cell-based, human
[2] = test system: NCI-H292 lung cancer cells; assay: FDA drug screening, complete media vs cholesterol-free media without statin (TABLE 1); format: cell-based, human
[3] = NCI-H292 cells, FDA drug library screen, cholesterol-free media with simvastatin 0.04 μM
[4] = NCI-H292 cells, FDA drug library screen, complete media
[5] = complete media vs cholesterol-free media + simvastatin (0.04 μM), >0 enhanced anti-cancer activity, about 0 neutral, <0 antagonist
[6] = Complete minus Cholesterol-free, greater than 0 enhanced anti-cancer activity, about 0 neutral, below 0 antagonists
[7] = NCI-H292 cells in complete media
[8] = NCI-H292 cells, drug in cholesterol-free media with simvastatin 0.04 μM
[9] = NCI-H292 cells, drug in complete media
[10] = complete media vs cholesterol-free media + simvastatin (0.04 μM), […]
[11] = Complete minus Cholesterol-free, […]
[12] = NCI-H292 cells, cholesterol-free media without statin
[13] = complete vs cholesterol-free media, greater than 0 enhanced anti-cancer activity, about 0 neutral, below 0 antagonists
[14] = complete media minus cholesterol-free media + simvastatin, >0 enhanced anti-cancer activity, about 0 neutral, <0 antagonist
[15] = Complete minus Cholesterol-free, >0 enhanced anti-cancer activity, about 0 neutral, <0 antagonist
[16] = NCI-H292 cells, cholesterol-free media with simvastatin 0.04 μM, FDA drug library screen (TABLE 2)
[17] = NCI-H292 cells, complete media, FDA drug library screen (TABLE 2)
[18] = complete media minus cholesterol-free media + simvastatin (0.04 μM), >0 enhanced anti-cancer activity, about 0 neutral, <0 antagonist
[19] = NCI-H292 cells, FDA library drug in cholesterol-free media with simvastatin 0.04 μM
[20] = NCI-H292 cells, FDA library drug in complete media
[21] = NCI-H292 cells in cholesterol-free media without statin
[22] = NCI-H292 cells, cholesterol-free media without statin, FDA drug library screen
[23] = NCI-H292 cells, complete media, FDA drug library screen
[24] = Complete minus Cholesterol-free, greater than 0 enhanced anti-cancer activity, about 0 neutral, below 0 antagonist
[25] = NCI-H292 cells, FDA drug library screen, cholesterol-free media without statin

COc1ccc(Cl)cc1C(=O)NCCc1ccc(S(=O)(=O)NC(=O)NC2CCCCC2)cc1 [Glibenclamide]
Cholesterol-free media + simvastatin (0.04 μM) [1, 3]: 1.112 | Complete Media [1, 4]: 0.9567 | Difference [1, 5]: −0.16 | Difference [2, 6]: −0.64 | Complete [2, 7]: 0.9798

COc1ccc(/C=C/C(=O)Nc2ccccc2C(=O)O)cc1OC [trans-Tranilast]
Cholesterol-free media + simvastatin (0.04 μM) [1, 8]: 1.144 | Complete Media [1, 9]: 0.9085 | Difference [1, 10]: −0.24 | Difference [2, 11]: −0.10 | Complete [2, 4]: 0.8406

CC(=O)OCC(=O)[C@@]1(O)CC[C@H]2[C@@H]3CCC4=CC(=O)C=C[C@]4(C)[C@H]3[C@@H](O)C[C@@]21C [Prednisolone acetate]
Cholesterol-free media + simvastatin (0.04 μM) [1, 3]: 0.7463 | Complete Media [1, 4]: 0.6367 | Difference [1, 5]: −0.11 | Cholesterol-free [2, 12]: 0.9263 | Complete ([2]; NCI-H292 cells, complete media): 0.6003 | Difference [2, 13]: −0.33

CCCCC(F)(F)[C@@]1(O)CC[C@H]2[C@@H](CC(=O)[C@@H]2CCCCCCC(=O)O)O1 [Lubiprostone]
Cholesterol-free media + simvastatin (0.04 μM) [1, 3]: 1.061 | Complete Media [1, 4]: 1.267 | Difference [1, 14]: 0.21 | Difference [2, 15]: −0.28 | Cholesterol-free [2, 12]: 1.064 | Complete ([2]; NCI-H292 cells, complete media): 0.7833

Pazufloxacin (mesylate)
Cholesterol-free media + simvastatin (0.04 μM) [1, 16]: 0.9357 | Complete Media [1, 17]: 0.9248 | Difference [1, 18]: −0.01 | Difference [2, 15]: −0.28 | Cholesterol-free [2, 12]: 0.9858 | Complete ([2]; NCI-H292 cells, complete media): 0.7051

COc1cccc2c1cc([N+](=O)[O-])c1c(C(=O)O)cc3c(c12)OCO3 [Aristolochic acid A]
Cholesterol-free media + simvastatin (0.04 μM) [1, 19]: 0.923 | Complete Media [1, 20]: 0.5762 | Difference [1, 10]: −0.35 | Difference [2, 11]: −0.56 | Cholesterol-free [2, 21]: 1.282 | Complete [2, 7]: 0.7241

C=CC1=C(C(=O)O)N2C(=O)[C@@H](NC(=O)/C(=N\OCC(=O)O)c3csc(N)n3)[C@H]2SC1 [Cefixime]
Cholesterol-free media + simvastatin (0.04 μM) [1, 8]: 1.663 | Complete Media [1, 9]: 1.418 | Difference [1, 5]: −0.24 | Difference [2, 15]: 0.05 | Cholesterol-free [2, 22]: 1.137 | Complete [2, 23]: 1.188

Nc1nc2[nH]cc(CCc3ccc(C(=O)N[C@@H](CCC(=O)O)C(=O)O)cc3)c2c(=O)[nH]1 [Pemetrexed]
Cholesterol-free media + simvastatin (0.04 μM) [1, 16]: 0.2196 | Complete Media [1, 17]: 0.2004 | Difference [1, 18]: −0.02 | Difference [2, 15]: −0.01 | Cholesterol-free [2, 22]: 0.1659 | Complete [2, 23]: 0.1596

CC(=O)Oc1cc(C)c(OC(C)=O)c2ccccc12 [Vitamin K4]
Cholesterol-free media + simvastatin (0.04 μM) ([1]; NCI-H292 cells, cholesterol-free media with simvastatin 0.04 μM, […]): 0.7559 | Complete Media ([1]; NCI-H292 cells, complete media, […]): 0.8779 | Difference ([1]; complete media minus cholesterol-free media + simvastatin, […]): 0.12 | Difference [2, 11]: −0.21 | Cholesterol-free [2, 12]: 0.9817 | Complete ([2]; NCI-H292 cells, complete media): 0.7726

CCOC(=O)[N-]c1cn(N2CCOCC2)n[o+]1 [Molsidomine]
Cholesterol-free media + simvastatin (0.04 μM) [1, 3]: 1.15 | Complete Media [1, 4]: 1.6 | Difference [1, 14]: 0.45 | Difference [2, 6]: −0.60 | Cholesterol-free [2, 21]: 1.343 | Complete [2, 7]: 0.7419

CCCCC[C@](C)(O)/C=C/[C@@H]1[C@@H](C/C=C\CCCC(=O)O)[C@@H](O)C[C@H]1O.NC(CO)(CO)CO [Carboprost (tromethamine)]
Cholesterol-free media + simvastatin (0.04 μM) [1, 19]: 1.591 | Complete Media [1, 20]: 1.306 | Difference [1, 5]: −0.29 | Difference [2, 24]: −0.14 | Cholesterol-free [2, 25]: 1.222 | Complete [2, 4]: 1.08

COc1cccc(N(C)C(=S)Oc2ccc3c(c2)CCCC3)n1 [Liranaftate]
Cholesterol-free media + simvastatin (0.04 μM) [1]: 0.9604 | Complete Media [1]: 0.9217 | Difference [1]: −0.04 | Cholesterol-free [2]: 1.279 | Complete [2]: 0.8388 | Difference [2]: −0.44

COc1ccc2[nH]cc(CCNC(C)=O)c2c1 [Melatonin]
Cholesterol-free media + simvastatin (0.04 μM) [1, 3]: 1.501 | Complete Media [1, 4]: 1.753 | Difference [1, 14]: 0.25 | Difference [2, 15]: 0.05 | Cholesterol-free [2, 22]: 0.9489 | Complete [2, 23]: 0.9969

CC1(C)S[C@@H]2[C@H](NC(=O)[C@H](N)c3ccc(O)cc3)C(=O)N2[C@H]1C(=O)O [Amoxicillin]
Cholesterol-free media + simvastatin (0.04 μM) [1, 3]: 0.9948 | Complete Media [1, 4]: 1.386 | Difference [1, 14]: 0.39 | Cholesterol-free [2, 22]: 0.9555 | Complete [2, 23]: 1.159 | Difference ([2]; complete vs cholesterol-free media, >0 enhanced anti-cancer activity, about 0 neutral, <0 antagonist): 0.20

Penbutolol (sulfate)
Cholesterol-free media + simvastatin (0.04 μM) [1, 8]: 0.9562 | Complete Media [1, 9]: 0.7448 | Difference [1, 5]: −0.21 | Difference [2, 6]: −0.71 | Complete [2, 7]: 1.219

CC(=O)Oc1ccccc1C(=O)O [Aspirin]
Cholesterol-free media + simvastatin (0.04 μM) [1, 8]: 1.19 | Complete Media [1, 9]: 0.9812 | Difference [1, 5]: −0.21 | Cholesterol-free [2, 12]: 1.474 | Complete ([2]; NCI-H292 cells, complete media): 1.02 | Difference [2, 13]: −0.45

CCc1c(Cl)c(O)c(Cl)c(O)c1C(=O)O[C@H]1[C@H](O)[C@H](OC)[C@H](OC/C2=C\C=C\C[C@H](O)/C(C)=C/[C@H](CC)[C@@H](O[C@@H]3OC(C)(C)[C@@H](OC(=O)C(C)C)[C@H](O)[C@@H]3O)/C(C)=C/C(C)=C/C[C@@H]([C@@H](C)O)OC2=O)O[C@@H]1C [Fidaxomicin]
Cholesterol-free media + simvastatin (0.04 μM) [1, 19]: 1.494 | Complete Media [1, 20]: 1.227 | Difference [1, 5]: −0.27 | Difference [2, 6]: −0.71 | Cholesterol-free [2, 21]: 1.405 | Complete [2, 7]: 0.6951

CC(C)(C)NCC(O)COc1cccc2c1CC(O)C(O)C2 (stereo not drawn) [Nadolol]
Cholesterol-free media + simvastatin (0.04 μM) [1, 19]: 1.308 | Complete Media [1, 20]: 1.014 | Difference [1, 5]: −0.29 | Difference [2, 15]: −0.30 | Cholesterol-free [2, 12]: 1.37 | Complete ([2]; NCI-H292 cells, complete media): 1.069

COCCCOc1cc(C[C@@H](C[C@H](N)[C@@H](O)C[C@H](C(=O)NCC(C)(C)C(N)=O)C(C)C)C(C)C)ccc1OC [Aliskiren]
Cholesterol-free media + simvastatin (0.04 μM) [1, 19]: 1.326 | Complete Media [1, 20]: 0.8268 | Difference [1, 5]: −0.50 | Difference [2, 6]: −0.67 | Cholesterol-free [2, 21]: 1.754 | Complete [2, 7]: 1.084

CC(C)=CCC/C(C)=C/CC/C(C)=C/CCC(=O)OC/C=C(\C)CCC=C(C)C [Gefarnate]
Cholesterol-free media + simvastatin (0.04 μM) [1]: 1.714 | Complete Media [1]: 1.906 | Difference [1]: 0.19 | Cholesterol-free [2]: 1.413 | Complete [2]: 0.9135 | Difference [2]: −0.50

CC1(C)S[C@@H]2[C@H](/N=C/N3CCCCCC3)C(=O)N2[C@H]1C(=O)O [Mecillinam]
Cholesterol-free media + simvastatin (0.04 μM) [1, 3]: 1.033 | Complete Media [1, 4]: 1.74 | Difference [1, 14]: 0.71 | Difference [2, 24]: −0.15 | Cholesterol-free [2, 25]: 0.9011 | Complete [2, 4]: 0.7528

NC[C@H]1CC[C@H](C(=O)O)CC1 [Tranexamic acid]
Cholesterol-free media + simvastatin (0.04 μM) [1, 8]: 1.894 | Complete Media [1, 9]: 1.678 | Difference [1, 5]: −0.22 | Difference [2, 6]: −0.77 | Cholesterol-free [2, 21]: 2.288 | Complete [2, 7]: 1.522
